Reference: paper PMC5728534 (PLoS ONE, 2017)
Residue numbers refer to the chain shown, from its start. “Also recorded” adds a separate entry of the source. Read-outs that look alike come from different tables or passages of the source.

What was measured:
[1] = dogs; cited from earlier work
OCT1*1A (Met408Val) = target: T1, OCT1*1A (Met408Val) (Homo sapiens, UniProt O15245, L160F/M408V); settings: 1 and 10 μM ranitidine, 2 min
T1 sequence (O15245 1-554 L160F/M408V): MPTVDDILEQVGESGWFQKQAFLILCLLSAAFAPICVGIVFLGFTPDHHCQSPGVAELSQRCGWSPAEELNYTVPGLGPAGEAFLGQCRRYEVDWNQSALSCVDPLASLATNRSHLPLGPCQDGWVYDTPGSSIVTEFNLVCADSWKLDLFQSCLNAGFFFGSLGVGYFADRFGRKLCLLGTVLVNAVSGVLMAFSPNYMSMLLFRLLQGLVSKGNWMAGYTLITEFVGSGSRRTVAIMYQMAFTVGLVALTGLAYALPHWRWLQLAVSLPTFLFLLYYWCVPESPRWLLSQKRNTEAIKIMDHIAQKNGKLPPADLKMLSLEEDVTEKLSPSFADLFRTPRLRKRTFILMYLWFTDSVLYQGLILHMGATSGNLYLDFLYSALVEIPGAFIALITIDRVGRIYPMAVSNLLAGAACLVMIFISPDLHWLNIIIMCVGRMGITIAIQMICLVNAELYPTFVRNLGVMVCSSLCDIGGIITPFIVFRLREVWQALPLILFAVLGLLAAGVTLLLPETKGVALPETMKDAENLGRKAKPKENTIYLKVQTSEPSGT
Description: (§1) HEK293 or CHO cells overexpressing the human OCT1 alleles *1A (characterized by the amino acid substitution Met408Val), *1B, *1C (Phe160Leu), *1D (Pro341Leu/Met408Val), *2 (Met420del), *3 (Arg61Cys), *4 (Gly401Ser), *5 (Gly465Arg/Met420del), *6 (Cys88Arg/Met420del), *7 (Ser14Phe), *8A (Arg488Met), *8B (Arg488Met/Met408Val), *9 (Pro117Leu), *10 (Ser189Leu), *11 (Ile449Thr), *12 (Ser29Leu), or *13 (Thr245Met), the human OCT2 reference and variant alleles (Ala270Ser), human OCT3, and the control cells (transfected with the empty pcDNA5 vector) were generated by targeted chromosomal integration using the Flp-In™ System (Life Technologies, Darmstadt, Germany).
(§2) Six hundred thousand HEK293 or CHO cells were plated per well in 12-well plates (pre-coated with poly-D-lysine) and were grown for 48 hours to reach confluence. Cells were kept at 37°C and 5% CO2 in DMEM (HEK293) or RPMI (CHO), supplemented with 10% FCS, 100 U/ml penicillin, and 100 μg/ml streptomycin. Uptake experiments were performed at pH 7.4 using HBSS supplemented with 10 mM HEPES buffer (herein referred to as HBSS+). […]
(§3) For all transport measurements, the intracellular amount of substrate was normalized to the total amount of protein of the sample as measured using the bicinchoninic acid assay [49].
(§4) For quantification of intracellular substrates, the cell debris were removed by centrifugation at 17,000 x g for 10 min. […]

OCT1*12 (Ser29Leu) = target: T2, OCT1*12 (Ser29Leu) (Homo sapiens, UniProt O15245, L160F/S29L); test: Ranitidine uptake in HEK293 cells overexpressing OCT1*12; format: in vitro ADME; settings: 1 μM and 10 μM ranitidine, 2 min
T2 construct: expressed in transfected cells; host or cells: HEK293 T-REx (Flp-In)
T2 sequence (O15245 1-554 S29L/L160F): T1 sequence (O15245 1-554 L160F/M408V) with S29L, V408M
Description: as §1, §2, §3, §4

[2] = Estimated ranitidine concentrations in portal vein and gastrointestinal tract; design: species or system human; settings: highest clinical dose (300 mg) in a volume of 250 ml
Description: The concentrations were chosen to be representative for the maximal unbound plasma (Cmax) and the estimated maximal unbound portal vein concentration (Cmax port).

OCT1*8 (Arg488Met) = target: T3, OCT1*8 (Arg488Met) (Homo sapiens, UniProt O15245, L160F/R488M); settings: not statistically significant (P = 0.5)
T3 sequence (O15245 1-554 L160F/R488M): T1 sequence (O15245 1-554 L160F/M408V) with V408M, R488M
Description: as §1, §2, §3, §4

OCT1*1 = target: T4, OCT1*1 (Homo sapiens, UniProt O15245, L160F); test: Inhibition by ranitidine of OCT1-mediated substrate uptake, reference allele, HEK293 cells; format: cell-based; settings: for inhibition at 2 min: human, HEK293 cells overexpressing OCT1*1 (reference allele); for IC50: OCT1*1, 2 min, HEK293
T4 construct: expressed in transfected cells; host or cells: HEK293 T-REx (Flp-In)
T4 sequence (O15245 1-554 L160F): T1 sequence (O15245 1-554 L160F/M408V) with V408M
Description: as §1
Cells were kept at 37°C and 5% CO2 in DMEM (HEK293) or RPMI (CHO), supplemented with 10% FCS, 100 U/ml penicillin, and 100 μg/ml streptomycin. Uptake experiments were performed at pH 7.4 using HBSS supplemented with 10 mM HEPES buffer (herein referred to as HBSS+). Cells were washed once with 1 ml pre-warmed HBSS+ buffer (37°C). […] Cells were washed twice with 2 ml ice-cold HBSS+ and lysed in 500 μl lysis buffer.
The intracellular concentration of MPP^+ was determined using liquid scintillation counting of radioactively labeled substrate. To this end, 400 μl cell lysate was measured with 9 ml Aquasafe Plus liquid scintillator using the Scintillation Counter LS6500 (Beckman Coulter, Krefeld, Germany). Intracellular ASP^+ concentrations were determined using fluorescence spectroscopy.
as §3
For quantification of intracellular substrates, the cell debris were removed by centrifugation at 17,000 x g for 10 min. Four-hundred μl of the supernatant was evaporated to dryness under nitrogen flow at 40°C. The residue was reconstituted in 200 μl 0.1% formic acid and 10 μl were injected into the LC-MS/MS. For the LC-MS/MS analysis an API 4000™ system tandem mass spectrometer (AB SCIEX, Darmstadt, Germany) was used. Samples were separated using a Brownlee SPP RP-Amide Column (4.6x100 mm, 2.7 μm; PerkinElmer), with a SecurityGuard C18, 4x2 mm pre-column (Phenomenex, Aschaffenburg, Germany).
Nonlinear regression to the Michaelis-Menten equation was performed to determine Km and vmax using GraphPad Prism version 6 (GraphPad Software Inc., La Jolla, CA, USA). Nonlinear regression to the Hill equation v = vmin+(vmax-vmin)/1+([I]/IC50)^-Hillslope was performed to determine IC50 using SigmaPlot version 12.0 (Systat Software, San Jose, California, USA).

For `CNC(=C[N+](=O)[O-])NCCSCc1ccc(CN(C)C)o1` [ranitidine, Ranitidine], the “reduction of basolateral uptake by co-administration of probenecid” value [1] is listed as “four-fold”, the “uptake of ranitidine compared to the reference allele” value (OCT1*1A (Met408Val)) is listed as “no significant difference” and the ranitidine transport activity (OCT1*12 (Ser29Leu)) is listed as “completely lacked ranitidine uptake; also recorded: complete lack of ranitidine transport activity”. For the same molecule, the “[I]2, theoretical maximal gastrointestinal ranitidine concentration after oral administration” value [2] was 3800 µM, the “increase in vmax compared to the reference allele” value (OCT1*8 (Arg488Met)) was 25% and the “induction of morphine uptake” value (OCT1*1; at Cmax of ranitidine, reference allele only, not in OCT1*2) was 41%. For the same molecule, the inhibition at 2 min (OCT1*1; pH 7.4, probe metformin (100 μM), read-out: inhibition of metformin uptake) was 50%, the inhibition at 2 min (OCT1*1; pH 7.4, high concentrations expected in the gastrointestinal tract, all substrates tested, reference allele, read-out: inhibition of substrate uptake) was over 70% and the IC50 (OCT1*1; substrate 0.1 μM MPP+) was 81.9 µM. For the same molecule, the IC50 (OCT1*1; substrate 0.1 μM morphine) was 45.5 ± 5.49 µM, the IC50 (OCT1*1; substrate 1 μM ASP+) was 337 µM and the IC50 (OCT1*1; substrate 100 μM metformin) was 20.9 µM.
